Patent US20180037568A1, “MODULATORS OF METHYL MODIFYING ENZYMES, COMPOSITIONS AND USES THEREOF” (Constellation Pharmaceuticals, Inc., priority 2015, published 2018)
pEC50, pIC50: −log10 of the molar value. Read-outs that look alike come from different tables or passages of the source.

Columns and labels:
[1] = tested on: H3K27me3 mark; experiment: H3K27me3 Alpha Hela Assay (AlphaLISA); type: cell-based; details: Hela cells, read-out: EZH2 Cell H3K27me3 Alpha HeLa (EC50 K27me3)
Protocol: EC50 Measurements for Inhibitors in HeLa Cell Assays
H3K27me3 Alpha Hela Assay (AlphaLISA). Ten different doses of each test compound (in a series of 3-fold dilutions) were plated in duplicate 384-well tissue culture treated plates (Catalog #781080; Greiner Bio One; Monroe, N.C.). Hela cells grown in culture were trypsinized and counted using a Countess® cell counter (Catalog # C10281; Life Technologies, Grand Island, N.Y.). Cell were diluted to 67,000 cells per mL in 10% DMEM (Catalog #10569-010 Life Technologies, Grand Island, N.Y.) and 15 μL (1,000 cells) were plated into each well using the Biotek MicroFlo™ Select Dispenser (BioTek Instruments, Inc. Vermont, USA),) of the 384-well plate. Plates were incubated at 37° C./5% CO2 for 72 hrs. One of the duplicate plates was processed for HeLa assay and the other for viability.
To the plate processed for AlphaLISA was added 5 μL per well Cell-Histone Lysis buffer (1×) (Catalog # AL009F1 Perkin Elmer; Waltham, Mass.) and the plate was incubated at RT for 30 minutes on a plate shaker with low speed (Model#4625-Q Thermo Scientific; Waltham, Mass.). Then, 10 μL per well Histone Extraction buffer (catalog # AL009F2; Perkin Elmer; Waltham, Mass.) was added and the plate further incubated at RT for 20 min on plate shaker with low speed. To each well was then added 10 μL per well of a 5× mix of anti-K27me3 acceptor beads plus Biotinylated anti-Histone H3 (C-ter) Antibody (diluted to 3 nM final) (Catalog #AL118 Perkin Elmer; Waltham, Mass.). Dilution of the acceptor beads and then anti-Histone H3 was with 1× Histone Detection buffer (Catalog # AL009F3 Perkin Elmer; Waltham, Mass.) which was produced diluted from the 10× stock provided. The plate was sealed with an aluminum plate sealer and incubated at 23° C. for 60 min. We then added 10 μL 5× solution of Streptavidin Donor beads (Catalog #6760002 Perkin Elmer; Waltham, Mass.) (20 μg/mL final in 1× Histone Detection Buffer), sealed the plate with Aluminum plate sealer and incubated at 23° C. for 30 min. The plates were then read using an EnVision-Alpha Reader (model #2104 Perkin Elmer; Waltham, Mass.).
Data from both assays was analyzed using Assay Assistant (Constellation Pharmaceuticals In-house product) and Activity Base (IDBS Ltd, Surrey, UK) template. Data files were imported to Assay Assistant and assay conditions were specified. A unique Analysis ID was created and the data files exported to Activity Base. An analysis template was created on Activity Base to measure dose-dependent inhibition of H3K27me3 mark and cell viability respectively. Readout of DMSO wells were used to normalize the data. Resulting curves were fitted using Activity base software Model 205 (IDBS Ltd, Surrey, UK). The data was checked for quality, validated and integrated in excel format using SARview (IDBS Ltd, Surrey, UK).

[2] = biological target: EZH2 (Homo sapiens, UniProt Q15910); experiment: EZH2 nuc BSA Brij 1.5 (IC50): rPRC2, biotinylated oligonucleosome substrate, 3H SAM FlashPlate; type: biochemical; details: 2 nM EZH2, 0.2 μM biotinylated oligonucleosomes, 0.2 μM 3H SAM, 3.6 μM H3K27me3 peptide
Chain of EZH2 (Q15910 whole entry): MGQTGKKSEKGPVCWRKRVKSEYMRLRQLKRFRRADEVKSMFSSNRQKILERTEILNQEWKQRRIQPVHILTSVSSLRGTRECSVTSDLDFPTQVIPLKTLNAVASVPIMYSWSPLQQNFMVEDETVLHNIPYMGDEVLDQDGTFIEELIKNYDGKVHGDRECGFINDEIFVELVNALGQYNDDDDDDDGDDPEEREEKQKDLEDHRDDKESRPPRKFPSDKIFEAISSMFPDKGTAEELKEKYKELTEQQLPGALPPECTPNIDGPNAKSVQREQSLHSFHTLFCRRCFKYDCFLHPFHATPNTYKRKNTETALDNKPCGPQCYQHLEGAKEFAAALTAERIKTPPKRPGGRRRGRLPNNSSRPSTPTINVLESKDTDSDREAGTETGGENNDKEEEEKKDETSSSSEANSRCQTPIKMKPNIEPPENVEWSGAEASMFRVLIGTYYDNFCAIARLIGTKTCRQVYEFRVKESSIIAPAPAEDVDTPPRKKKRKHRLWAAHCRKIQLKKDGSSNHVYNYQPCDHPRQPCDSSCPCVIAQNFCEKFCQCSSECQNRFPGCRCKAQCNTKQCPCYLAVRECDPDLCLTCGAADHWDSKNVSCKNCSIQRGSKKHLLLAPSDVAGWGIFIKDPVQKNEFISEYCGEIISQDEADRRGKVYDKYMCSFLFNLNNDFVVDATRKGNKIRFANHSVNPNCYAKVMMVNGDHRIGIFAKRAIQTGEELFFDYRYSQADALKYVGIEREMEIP
Chain of EZH2 (O75530 whole entry partner): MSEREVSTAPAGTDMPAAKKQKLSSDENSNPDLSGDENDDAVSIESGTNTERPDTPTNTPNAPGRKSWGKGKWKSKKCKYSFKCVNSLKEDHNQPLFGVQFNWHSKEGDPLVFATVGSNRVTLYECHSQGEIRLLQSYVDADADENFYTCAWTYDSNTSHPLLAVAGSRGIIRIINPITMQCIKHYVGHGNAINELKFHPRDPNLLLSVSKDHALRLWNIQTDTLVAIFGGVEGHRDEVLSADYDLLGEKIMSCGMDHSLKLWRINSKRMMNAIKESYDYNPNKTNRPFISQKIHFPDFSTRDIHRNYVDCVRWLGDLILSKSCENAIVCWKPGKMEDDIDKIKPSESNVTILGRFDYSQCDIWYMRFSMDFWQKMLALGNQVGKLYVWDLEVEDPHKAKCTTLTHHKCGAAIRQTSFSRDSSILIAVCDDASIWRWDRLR
Chain of EZH2 (Q15022 whole entry partner): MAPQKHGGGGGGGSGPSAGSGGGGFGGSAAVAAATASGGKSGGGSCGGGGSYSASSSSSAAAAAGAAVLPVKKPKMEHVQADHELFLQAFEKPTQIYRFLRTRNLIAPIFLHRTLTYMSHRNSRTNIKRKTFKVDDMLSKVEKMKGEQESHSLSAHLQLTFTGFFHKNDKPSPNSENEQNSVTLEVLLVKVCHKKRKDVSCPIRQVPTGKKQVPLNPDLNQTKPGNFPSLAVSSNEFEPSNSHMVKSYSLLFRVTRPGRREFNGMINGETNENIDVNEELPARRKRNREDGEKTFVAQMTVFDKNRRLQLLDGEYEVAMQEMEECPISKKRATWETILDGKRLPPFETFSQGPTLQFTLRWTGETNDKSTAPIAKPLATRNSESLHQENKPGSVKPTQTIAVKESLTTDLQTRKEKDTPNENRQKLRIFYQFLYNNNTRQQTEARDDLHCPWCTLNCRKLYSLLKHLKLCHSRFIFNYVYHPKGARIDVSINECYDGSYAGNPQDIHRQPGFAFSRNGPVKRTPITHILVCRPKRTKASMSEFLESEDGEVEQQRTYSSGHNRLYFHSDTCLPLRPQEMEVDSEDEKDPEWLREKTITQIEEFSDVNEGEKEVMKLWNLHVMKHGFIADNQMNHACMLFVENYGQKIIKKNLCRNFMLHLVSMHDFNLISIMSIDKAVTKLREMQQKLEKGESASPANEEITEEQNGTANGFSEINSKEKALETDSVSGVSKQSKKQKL
Protocol: EZH2 Nuc BSA Brij 1.5 (IC50):
Assays were carried out by mixing rPRC2 together with biotinylated oligonucleosome substrates in the presence of the radio-labeled enzyme co-factor, S-adenosyl-L-methionine (^3H SAM) (Perkin Elmer) and monitoring the enzymatically mediated transfer of tritiated methyl groups from ^3H SAM to histone lysine residues. The amount of resulting tritiated methyl histone product was measured by first capturing the biotinylated oligonucleosomes in streptavidin (SAV) coated FlashPlates (Perkin Elmer), followed by a wash step to remove un-reacted ^3H SAM, and then counting on a TopCount NXT 384 well plate scintillation counter (Perkin Elmer). The final assay conditions for EZH2 were as follows: 50 mM Tris Buffer pH 8.5, 1 mM DTT, 69 μM Brij-35 detergent, 5.0 mM MgCl2, 0.1 mg/mL BSA, 0.2 μM ^3H SAM, 0.2 μM biotinylated oligonucleosomes, 3.6 μM H3K27me3 peptide and 2 nM EZH2.
Compound IC50 Measurements were Obtained as Follows:
Compounds were first dissolved in 100% DMSO as 10 mM stock solutions. Ten point dose response curves were generated by dispensing varying amounts of the 10 mM compound solution in 10 wells of the 384 well plate (Echo; Labcyte), pure DMSO was then used to backfill the wells to insure all wells have the same amount of DMSO. A 12.5 μL volume of the HMT enzyme, H3K27me3 peptide and oligonucleosome substrate in assay buffer was added to each well of the assay plate using a Multidrop Combi (ThermoFisher). Compounds were pre-incubated with the enzyme for 20 min, followed by initiation of the methyltransferase reaction by addition of 12.5 μL of ^3H SAM in assay buffer (final volume=25 μL). The final concentrations of compounds ranged from a top default concentration of 80 μM down to 0.16 μM in ten 2-fold dilution steps. Reactions were carried out for 60 minutes and quenched with 20 μL per well of 1.96 mM SAH, 50 mM Tris pH 8.5, 200 mM EDTA. Stopped reactions were transferred to SAV coated Flashplates (Perkin Elmer), incubated for 120 min, washed with a plate washer, and then read on the TopCount NXT (1.0 min/well) to measure the amount of methyl histone product formed during the reaction. The amount of methyl histone product was compared with the amount of product formed in the 0% and 100% inhibition control wells allowing the calculation of % Inhibition in the presence of the individual compounds at various concentrations. IC50's were computed using a 4 parameter fit non-linear curve fitting software package (XLFIT, part of the database package, ActivityBase (IDBS)) where the four parameters were IC50, Hill slope, pre-transitional baseline (0% INH), and post-transitional baseline (100% INH); with the latter two parameters being fixed to zero and 100%, respectively, by default.

[3] = biological target: T1, PRC2 containing wt EZH2 (Homo sapiens, UniProt Q15910); experiment: EZH2 pep BSA Brij 4.0 LowE (IC50): 3H-SAM incorporation into biotinylated H3 peptide; type: biochemical; details: 20 pM PRC2 wt EZH2, 0.9 μM 3H-SAM, biotinylated H3 peptide substrate, 2 μM H3K27me3 activating peptide
T1 construct: made in house
T1 sequence (Q15910 whole entry): as the sequence (Q15910 whole entry) above
T1 sequence (O75530 whole entry partner): as the sequence (O75530 whole entry partner) above
T1 sequence (Q15022 whole entry partner): as the sequence (Q15022 whole entry partner) above
T1 sequence (Q09028 whole entry partner): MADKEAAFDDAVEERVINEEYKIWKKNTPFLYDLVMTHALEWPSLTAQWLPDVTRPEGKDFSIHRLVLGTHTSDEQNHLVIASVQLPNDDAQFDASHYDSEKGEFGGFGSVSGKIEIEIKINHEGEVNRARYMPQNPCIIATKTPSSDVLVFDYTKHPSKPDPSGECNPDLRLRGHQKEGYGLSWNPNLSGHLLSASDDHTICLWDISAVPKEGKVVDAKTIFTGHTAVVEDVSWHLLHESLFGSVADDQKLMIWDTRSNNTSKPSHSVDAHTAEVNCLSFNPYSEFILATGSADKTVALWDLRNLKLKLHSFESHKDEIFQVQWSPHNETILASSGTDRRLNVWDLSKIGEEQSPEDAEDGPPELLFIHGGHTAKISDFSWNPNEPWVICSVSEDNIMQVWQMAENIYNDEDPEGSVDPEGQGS
T1 sequence (Q6ZN18 whole entry partner): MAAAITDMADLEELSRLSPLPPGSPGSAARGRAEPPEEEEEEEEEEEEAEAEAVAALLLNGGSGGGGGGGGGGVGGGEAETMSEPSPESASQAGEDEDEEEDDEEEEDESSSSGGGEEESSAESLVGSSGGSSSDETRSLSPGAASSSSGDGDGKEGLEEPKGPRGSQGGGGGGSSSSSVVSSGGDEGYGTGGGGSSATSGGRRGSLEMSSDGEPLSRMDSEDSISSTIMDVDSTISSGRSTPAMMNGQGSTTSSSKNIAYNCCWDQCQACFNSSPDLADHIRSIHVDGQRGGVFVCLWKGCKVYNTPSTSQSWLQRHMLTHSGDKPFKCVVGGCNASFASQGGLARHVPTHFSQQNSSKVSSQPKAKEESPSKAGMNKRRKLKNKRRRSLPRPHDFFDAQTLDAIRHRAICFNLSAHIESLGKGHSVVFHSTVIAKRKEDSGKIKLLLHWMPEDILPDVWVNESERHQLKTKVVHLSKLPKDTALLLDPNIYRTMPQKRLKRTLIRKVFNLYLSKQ
Protocol: EZH2 Pep BSA Brij 4.0 LowE (IC50):
Compound potencies were assessed through incorporation of ^3H-SAM into a biotinylated H3 peptide. Specifically, PRC2 containing wt EZH2 (20 pM), (pentameric complexes prepared in-house) was pre-incubated with ^3H-SAM (0.9 μM), 2 μM H3K27me3 activating peptide (H2N-RKQLATKAAR(Kme3)SAPATGGVKKP-amide) and compounds (as 10 point duplicate dose response titrations in DMSO, final assay 0.8% DMSO (v/v)) for 120 min in 50 mM Tris (pH 8.5), 1 mM DTT, 0.07 mM Brij-35, 0.1% BSA, and 0.8% DMSO in a total volume of 12.5 μl. Reaction was initiated with biotinylated H3 substrate peptide (H2N-RKQLATKAAR(Kme1)SAPATGGVKKP-NTPEGBiot) as a 2 μM stock in 12.5 μl of buffer and allowed to react at room temperature for 5 h. Quenching was accomplished by addition of 20 μl of STOP solution (50 mM Tris (pH 8.5), 200 mM EDTA, 2 mM SAH). 35 μl of the quenched solution was transferred to Streptavidin Flashplates, incubated overnight, washed, and read in a TopCount Reader (Perkin Elmer). IC50s were calculated relative to fully active and no enzyme control wells using non-linear least square four parameter fits.

[4] = EZH2 pep BSA Brij 4.0 LowE (IC50)

Compound	pIC50 ([2]; EZH2 nuc BSA Brij 1.5 (IC50))	pEC50 ([1]; 72 hrs)	further results
COc1cc(C)[nH]c(=O)c1CNC(=O)c1c(C)n(C(C)C2CCNc3ccccc32)c2ccccc12 (single isomer, unassigned) [Compound 1]	> 7.00	–	pEC50 ([1]; Homo sapiens, HeLa, 72 h): < 5.70
CCN1CCC(C(C)n2c(C)c(C(=O)NCc3c(OC)cc(C)[nH]c3=O)c3ccccc32)CC1C(F)(F)F (single isomer, unassigned) [Compound 9, 1-(1-(1-ethyl-2-(trifluoromethyl)piperidin-4-yl)ethyl)-N-((4-methoxy-6-methyl-2-oxo-1,2-dihydropyridin-3-yl)methyl)-2-methyl-1H-indole-3-carboxamide]	> 7.00	< 5.70	–
CCN1CCC(C(C)n2c(C)c(C(=O)NCc3c(OC)cc(C)[nH]c3=O)c3ccccc32)CC1C(F)(F)F (single isomer, unassigned) [Compound 10, 1-(1-(1-ethyl-2-(trifluoromethyl)piperidin-4-yl)ethyl)-N-((4-methoxy-6-methyl-2-oxo-1,2-dihydropyridin-3-yl)methyl)-2-methyl-1H-indole-3-carboxamide]	–	> 6.40	pIC50 ([2]; read-out: EZH2 nuc BSA Brij 1.5 (IC50)): > 7.00
COc1cc(C)[nH]c(=O)c1CNC(=O)c1c(C)n(C(C)C2CCNC(C(F)(F)F)C2)c2ccccc12 (single isomer, unassigned) [Compound 12, N-((4-methoxy-6-methyl-2-oxo-1,2-dihydropyridin-3-yl)methyl)-2-methyl-1-(1-(2-(trifluoromethyl)piperidin-4-yl)ethyl)-1H-indole-3-carboxamide]	> 7.00	–	–
COc1cc(C)[nH]c(=O)c1CNC(=O)c1c(C)n(C(C)C2CCN(C)C(C(F)(F)F)C2)c2ccccc12 (single isomer, unassigned) [Compound 13, N-((4-methoxy-6-methyl-2-oxo-1,2-dihydropyridin-3-yl)methyl)-2-methyl-1-(1-(1-methyl-2-(trifluoromethyl)piperidin-4-yl)ethyl)-1H-indole-3-carboxamide]	> 7.00	–	pEC50 ([1]; Homo sapiens, HeLa, 72 h): 5.70 to 6.40
Cc1cc(C)c(CNC(=O)c2c(C)n(C(C)C3CCNC(C(F)(F)F)C3)c3ccccc23)c(=O)[nH]1 (single isomer, unassigned) [Compound 16, N-((4,6-dimethyl-2-oxo-1,2-dihydropyridin-3-yl)methyl)-2-methyl-1-(1-(2-(trifluoromethyl)piperidin-4-yl)ethyl)-1H-indole-3-carboxamide]	> 7.00	–	–
COc1cc(C)[nH]c(=O)c1CNC(=O)c1c(C)n(C(C)C2CCNC(C(F)(F)F)C2)c2ccccc12 (single isomer, unassigned) [Compound 20, N-((4-methoxy-6-methyl-2-oxo-1,2-dihydropyridin-3-yl)methyl)-2-methyl-1-(1-(2-(trifluoromethyl)piperidin-4-yl)ethyl)-1H-indole-3-carboxamide]	> 7.00	5.70 to 6.40	–
COc1cc(C)[nH]c(=O)c1CNC(=O)c1c(C)n(C(C)C2CCNC(C(F)(F)F)C2)c2ccccc12 (single isomer, unassigned) [Compound 22, N-((4-methoxy-6-methyl-2-oxo-1,2-dihydropyridin-3-yl)methyl)-2-methyl-1-(1-(2-(trifluoromethyl)piperidin-4-yl)ethyl)-1H-indole-3-carboxamide]	> 7.00	5.70 to 6.40	–
COc1cc(C)[nH]c(=O)c1CNC(=O)c1c(C)n(C(C)C2CCNC(C(F)(F)F)C2)c2ccccc12 (single isomer, unassigned) [Compound 23, N-((4-methoxy-6-methyl-2-oxo-1,2-dihydropyridin-3-yl)methyl)-2-methyl-1-(1-(2-(trifluoromethyl)piperidin-4-yl)ethyl)-1H-indole-3-carboxamide]	6.00 to 7.00	< 5.70	–
COc1cc(C)[nH]c(=O)c1CNC(=O)c1c(C)n(C(C)C2CCN(C)c3ccccc32)c2ccccc12 (centres unmarked) [Compound 3, N-((4-methoxy-6-methyl-2-oxo-1,2-dihydropyridin-3-yl)methyl)-2-methyl-1-(1-(1-methyl-1,2,3,4-tetrahydroquinolin-4-yl)ethyl)-1H-indole-3-carboxamide]	> 7.00	–	–
COc1cc(C)[nH]c(=O)c1CNC(=O)c1c(C)n(C(C)C2CCN(C)C(c3cccc(C#N)c3)C2)c2ccccc12 (centres unmarked) [Compound 95]	–	–	pIC50 [3, 4]: > 7.00; pEC50 ([1]; Homo sapiens, HeLa, 72 h): 5.70 to 6.40
COc1cc(C)[nH]c(=O)c1CNC(=O)c1c(C)n(C(C)C2CCN(C)C(c3cccc(C#N)c3)C2)c2ccccc12 (centres unmarked) [Compound 96]	–	5.70 to 6.40	pIC50 ([3]; read-out: EZH2 pep BSA Brij 4.0 LowE (IC50)): > 7.00
COc1cc(C)[nH]c(=O)c1CNC(=O)c1c(C)n(C(C)C2CCN(C)C(c3cccc(C(=O)O)c3)C2)c2ccccc12 (centres unmarked) [Compound 97]	–	< 5.70	pIC50 [3, 4]: > 7.00
